Source: ChEMBL document CHEMBL3217461, “Synthesis of tetrazoleisoxazoline hybrids as a new class of tubulin polymerization inhibitors” (Medchemcomm, 2012)
Activity calls are given as the source filed them. No cut-off for these calls is given here.

Experiments:
A549 [1] = experiment: Cell cycle arrest in human A549 cells assessed as accumulation at S phase at 2 uM after 24 hrs using propidium iodide staining by flow cytometer analysis (reference value: 5.43%); assay type: functional
A549 [2] = experiment: Cell cycle arrest in human A549 cells assessed as accumulation at G2/M phase at 2 uM after 24 hrs using propidium iodide staining by flow cytometer analysis (reference value: 13.98%); assay type: functional
A549 [3] = experiment: Cytotoxicity against human A549 cells after 48 hrs by MTT assay; assay type: functional, cell-based; settings: A549, 48 h
A549 [4] = experiment: Cell cycle arrest in human A549 cells assessed as accumulation at G1 phase at 2 uM after 24 hrs using propidium iodide staining by flow cytometer analysis (reference value: 80.03%); assay type: functional
MDA-MB-231 = experiment: Cytotoxicity against human MDA-MB-231 cells after 48 hrs by MTT assay; assay type: functional, cell-based; settings: MDA-MB-231, 48 h
A549 [5] = experiment: Cell cycle arrest in human A549 cells assessed as accumulation at G0 phase at 2 uM after 24 hrs using propidium iodide staining by flow cytometer analysis (reference value: 0.56%); assay type: functional
Tubulin (Homo sapiens) [6] = molecular target: T1, Tubulin (Homo sapiens) (UniProt P68371+Q9H4B7+P0DPH7+P68366+Q13509+Q71U36+P04350+Q3ZCM7+P07437+P68363+Q9BQE3+Q6PEY2+Q13885+Q9BVA1+Q9BUF5); experiment: Inhibition of tubulin polymerization in human A549 cells assessed as microtubule network at 2 uM after 24 hrs by immunofluorescence microscopy analysis; assay type: cell-based
Tubulin (Homo sapiens) [7] = molecular target: T1, Tubulin (Homo sapiens); experiment: Inhibition of tubulin (unknown origin) at 2 uM after 30 to 60 mins by HTS assay; assay type: protein-complex assay
Tubulin (Homo sapiens) [8] = molecular target: T1, Tubulin (Homo sapiens); experiment: Inhibition of gamma-tubulin in human A549 cells assessed as decrease in protein organization pattern at 2 uM after 24 hrs by immunofluorescence analysis; assay type: cell-based
Tubulin (Bos taurus) = Tubulin (Bos taurus) (UniProt Q6B856+Q862L2+Q862F3); experiment: Displacement of [3H]-colchicine from purified bovine brain tubulin at 5 uM after 1 hr by scintillation proximity assay
A549 [9] = experiment: Induction of apoptosis in human A549 cells assessed as increase of caspase-3 expression at 2 uM after 2 hrs by Western blot analysis; assay type: functional, cell-based

inhibition (Tubulin (Homo sapiens) [6])	inhibition (Tubulin (Homo sapiens) [7])	inhibition (Tubulin (Homo sapiens) [8])	inhibition (Tubulin (Bos taurus))	Structure (SMILES)	Activity (A549 [1])	Activity (A549 [2])	IC50 (A549 [3])	Activity (A549 [4])	IC50 (MDA-MB-231)	Activity (A549 [5])	Activity (A549 [9])
–	–	–	–	COc1ccc(C2=NOC(COc3ccc(-c4nnnn4-c4cc(OC)c(OC)c(OC)c4)cc3N)C2)cc1[N+](=O)[O-] (stereo unspecified)	5.29%	18.08%	2.22 µM	74.79%	3.56 µM	1.84%	–
–	–	–	–	COc1ccc(C2=NOC(COc3ccc(-c4nnnn4-c4cc(OC)c(OC)c(OC)c4)cc3N)C2)cc1OC (stereo unspecified)	5.31%	20.18%	2.52 µM	73.08%	3.57 µM	1.44%	–
Active	Active	Active	92%	COc1cc(-n2nnnc2-c2ccc(OCC3CC(c4ccccc4F)=NO3)c(N)c2)cc(OC)c1OC (stereo unspecified)	6.04%	79.42%	1.49 µM	11.34%	2.4 µM	3.19%	Active
–	–	–	–	COc1ccc(C2=NOC(COc3ccc(-c4nnnn4-c4cc(OC)c(OC)c(OC)c4)cc3N)C2)cc1N (stereo unspecified)	5.42%	17.03%	2.08 µM	75.87%	3 µM	1.68%	–
–	–	–	–	COc1cc(-n2nnnc2-c2ccc(OCC3CC(c4ccc(C(F)(F)F)cc4)=NO3)c(N)c2)cc(OC)c1OC (stereo unspecified)	4.17%	45.61%	1.22 µM	43.08%	1.75 µM	7.14%	–
–	–	–	20%	CC(=O)O[C@H]1C(=O)[C@@]2(C)[C@H]([C@H](OC(=O)c3ccccc3)[C@]3(O)C[C@H](OC(=O)[C@H](O)[C@@H](NC(=O)c4ccccc4)c4ccccc4)C(C)=C1C3(C)C)[C@]1(OC(C)=O)CO[C@@H]1C[C@@H]2O	–	–	–	–	–	–	–
–	–	–	–	COc1cc(-n2nnnc2-c2ccc(OCC3CC(c4ccc(OC)c(OC)c4OC)=NO3)c(N)c2)cc(OC)c1OC (stereo unspecified)	5.4%	20.34%	2.03 µM	73.18%	3.54 µM	1.08%	–
–	–	–	–	COc1cc(C2=NOC(COc3ccc(-c4nnnn4-c4cc(OC)c(OC)c(OC)c4)cc3N)C2)ccc1O (stereo unspecified)	6.41%	21.18%	2.01 µM	70.71%	3.62 µM	1.65%	–
–	–	–	–	COc1ccc(OC)c(C2=NOC(COc3ccc(-c4nnnn4-c4cc(OC)c(OC)c(OC)c4)cc3N)C2)c1 (stereo unspecified)	5.02%	18.63%	1.93 µM	75.39%	3.5 µM	0.95%	–
–	–	–	–	COc1ccc(-c2nnnn2-c2cc(OC)c(OC)c(OC)c2)cc1N	3.47%	23.1%	2.63 µM	72.31%	3.17 µM	1.05%	–
–	–	–	–	COc1cc(C2=NOC(c3cc(OC)c(OC)c(OC)c3)C2)ccc1O (stereo unspecified)	4.25%	27.86%	2.6 µM	65.98%	3.6 µM	1.42%	–
–	–	–	–	COc1ccc(C2=NOC(COc3ccc(-c4nnnn4-c4cc(OC)c(OC)c(OC)c4)cc3N)C2)cc1O (stereo unspecified)	6.27%	21.81%	2.13 µM	69.87%	3.38 µM	2.05%	–
–	–	–	–	COc1cc(-n2nnnc2-c2ccc(OCC3CC(c4cccc(Cl)c4)=NO3)c(N)c2)cc(OC)c1OC (stereo unspecified)	5.53%	38.3%	1.34 µM	49.34%	2.18 µM	6.83%	–
Active	Active	Active	90%	COc1ccc(F)c(C2=NOC(COc3ccc(-c4nnnn4-c4cc(OC)c(OC)c(OC)c4)cc3N)C2)c1 (stereo unspecified)	5.93%	81.29%	1.51 µM	10.23%	2.83 µM	2.55%	Active
–	–	–	–	COc1ccc(/C=C\c2cc(OC)c(OC)c(OC)c2)cc1O [COMBRETASTATIN A4]	6.03%	84.71%	0.55 µM	7.47%	0.1 µM	1.79%	–
–	–	–	–	COc1cc(C2=NOC(COc3ccc(-c4nnnn4-c4cc(OC)c(OC)c(OC)c4)cc3N)C2)cc(OC)c1OC (stereo unspecified)	4.92%	20.72%	2.06 µM	72.62%	3.23 µM	1.74%	–
